The values that follow come from US8722742B2, “Chemical compounds having antiviral activity against Dengue virus and other Flaviviruses” (Centro de Ingenieria Genetica y Biotecnologia, priority 2008, dated 2014).

The assay concerns DEN2 virus. Put plainly: Plaque inhibition assay in Vero cells. It counts as cell-based, Dengue virus serotype 2. Particulars: Dengue virus, 120 h. As for the experimental part: Vero cells were grown in 24-wells plates until the monolayer reached approximately 90% confluence and two washes of the monolayer were done with medium MEM without SFB. Preparations of DEN2 virus equivalent to a multiplicity of infection of 0.1 were preincubated in MEM medium with and without presence of chemical compounds (100 uM) for about 1 hour at room temperature. Then, the virus/compounds mixture and virus/control mixture were incubated with monolayers for 1 hour at 37° C. After finished incubation, the cells were washed again and incubated during 5 days at 37° C. in high-density medium (MEM supplemented with non-essential amino acids, SFB 1%, carboxymethylcellulose 1%) to facilitate formation of lysis plaques. Blue Black Naphtol 0.1% in sodium acetate 0.15 mol/L was used for staining. In each experiment two replics were tested for each point and three independent determinations were done. The percentage of infection inhibition was calculated according to the following expression: […]
For orientation: inhibition means the drop in the measured response relative to a control, in per cent. A higher inhibition goes with a response far below the control. For `O=CN1CCN(S(=O)(=O)c2ccc(S(=O)(=O)N3CCOCC3)cc2)CC1` [C-SIJ06102], the inhibition at 100 µM fell in the range of 30 to 100%.

`O=S(=O)(NCCO)c1ccc(S(=O)(=O)N2CCCCC2)cc1` [C-SIJ01042] returned an inhibition at 100 µM of 70 to 100%.

The molecule `CC(C)(C)C(=O)CNS(=O)(=O)c1ccc(S(=O)(=O)N2CCOCC2)cc1` [C-SIJ01062] displayed an inhibition at 100 µM of 70 to 100%.

In turn, `O=C(CN1C(=O)c2ccccc2S1(=O)=O)Nc1ccc(S(=O)(=O)N2CCCCCC2)cc1` [C-SIJ04078] showed an inhibition at 100 µM of 70 to 100%.

`O=S(=O)(NCC1CC1)c1ccc(S(=O)(=O)N2CCCCC2)cc1` [C-SIJ01034] had an inhibition at 100 µM of 30 to 100%.

`O=S(=O)(Nc1ccccc1OC(F)F)c1ccc(S(=O)(=O)N2CCOCC2)cc1` [C-SIJ01066] yielded an inhibition at 100 µM of 70 to 100%.

Molecule `O=S(=O)(NCc1ccc(F)cc1)c1ccc(S(=O)(=O)N2CCCCC2)cc1` [C-SIJ01033] displayed an inhibition at 100 µM of 30 to 100%.

Consider `CC(C)CNS(=O)(=O)c1ccc(S(=O)(=O)N2C(C)CCCC2C)cc1` (stereo not shown) [C-SIJ01045], for which the inhibition at 100 µM lay within 30 to 100%.

Molecule `O=S(=O)(NCCC1=CCCCC1)c1ccc(S(=O)(=O)NCc2ccc3c(c2)OCO3)cc1` [C-SIJ01009] returned an inhibition at 100 µM of 70 to 100%.

In the case of `CCN(Cc1ccccc1)S(=O)(=O)c1ccc(S(=O)(=O)N2CCOCC2)cc1` [C-SIJ06097], the inhibition at 100 µM lay within 70 to 100%.

For `CC1CCCC(C)N1S(=O)(=O)c1ccc(S(=O)(=O)NCCc2ccncc2)cc1` (stereo not shown) [C-SIJ01047], the inhibition at 100 µM fell in the range of 70 to 100%.

In turn, `O=c1c2cc3c(=O)n(CCCn4ccnc4)c(=O)c3cc2c(=O)n1CCCn1ccnc1` came in with an inhibition at 100 µM of 0 to 30%.

With `O=S(=O)(NCCc1ccccc1)c1ccc(S(=O)(=O)N2CCCCC2)cc1` [C-SIJ01031], the inhibition at 100 µM lay in the range of 70 to 100%.

`O=S(=O)(NCc1ccccc1)c1ccc(S(=O)(=O)NC2CC2)cc1` [C-SIJ01003] came in with an inhibition at 100 µM of 30 to 100%.

As to `O=S(=O)(NCc1ccc2c(c1)OCO2)c1ccc(S(=O)(=O)NC2CC2)cc1` [C-SIJ01008], the inhibition at 100 µM lay in the range of 30 to 100%.

For the molecule `O=S(=O)(NCc1ccc2c(c1)OCO2)c1ccc(S(=O)(=O)NC2CCCCC2)cc1` [C-SIJ01006], the inhibition at 100 µM was 70 to 100%.

In turn, `O=S(=O)(NCc1ccccc1)c1ccc(S(=O)(=O)NC2CCCCC2)cc1` [C-SIJ01002] came in with an inhibition at 100 µM of 70 to 100%.

Take `O=S(=O)(NCc1ccco1)c1ccc(S(=O)(=O)NC2CCCCC2)cc1` [C-SIJ01020]: the inhibition at 100 µM lay in the range of 70 to 100%.

`COc1ccc(/C=N/NC(=O)Cc2ccc([N+](=O)[O-])cc2)cc1OC` [C-SIJ12143] returned an inhibition at 100 µM of 70 to 100%.

`CCCCNS(=O)(=O)c1ccc(S(=O)(=O)N2CCN(C(C)=O)CC2)cc1` [C-SIJ01026]: the inhibition at 100 µM was in the range of 30 to 100%.

Consider `CC(=O)N1CCN(S(=O)(=O)c2ccc(S(=O)(=O)NC3CCCCC3)cc2)CC1` [C-SIJ01023], for which the inhibition at 100 µM was 70 to 100%.

`O=C(CC1C(=O)c2ccccc2C1=O)Oc1ccc(-c2ccc(OC(=O)CN3C(=O)c4ccccc4C3=O)cc2)cc1` returned an inhibition at 100 µM of 0 to 30%.

Take `O=S(=O)(NC(c1ccccc1)c1ccccc1)c1ccc(S(=O)(=O)N2CCCCC2)cc1` [C-SIJ01039]: the inhibition at 100 µM was in the range of 70 to 100%.

The molecule `CS(=O)(=O)N1CCN(S(=O)(=O)c2ccc(S(=O)(=O)N3CCOCC3)cc2)CC1` [C-SIJ06103] came in with an inhibition at 100 µM of 70 to 100%.

Molecule `COC(CNS(=O)(=O)c1ccc(S(=O)(=O)N2CCOCC2)cc1)OC` [C-SIJ01056] displayed an inhibition at 100 µM of 70 to 100%.

Consider `O=C(O)[C@H]1CCCN(S(=O)(=O)c2ccc(S(=O)(=O)N3CCCCC3)cc2)C1` [C-SIJ06111], for which the inhibition at 100 µM is 70 to 100%.

Take `CC1CCCC(C)N1S(=O)(=O)c1ccc(S(N)(=O)=O)cc1` (stereo not shown) [C-SIJ01051]: the inhibition at 100 µM was 30 to 100%.

In turn, `NS(=O)(=O)c1ccc(S(=O)(=O)N2CCOCC2)cc1` [C-SIJ06099] came in with an inhibition at 100 µM of 30 to 100%.
